Assay results published in patent publication US8546582B2, “Sulfenamide, vulcanization accelerator containing the sulfenamide for rubber, and process for producing the vulcanization accelerator” (Ouchi Shinko Chemical Industrial Co., Ltd., priority 2007, dated 2013).
Values joined by “and” are separate entries in the source; they are usually repeats but may differ in a detail not shown here. Equal entries are not always repeated. One block for each compound: values may come before it.

What was measured:
carp = assay: test on the degree of bioconcentration of a chemical substance in the body of fish and shellfish; type: in vivo; details: for Concentration ratio (times), average / Concentration ratio (times): carp; for Concentration ratio (times): single values
Procedure: For BEBS synthesized in Example 2, a test on the degree of bioconcentration of a chemical substance in the body of fish and shellfish was carried out according to “Shinki Kagaku Busshitsu To Nikakaru Shiken No Hoho Nitsuite (Circular on Test Methods of New Chemical Substances)” (Yakushokuhatsu No. 1121002 dated Nov. 21, 2003, Seikyoku No. 2 dated on Nov. 13, 2003, Kanhokihatsu No. 03121002).
Test bioconcentration: First bioconcentration area 1 μg/L • Second bioconcentration area 0.1 μg/L
Exposure duration: 22 days
Exposure method: Continuous flow-through
Analytical method: High-performance liquid chromatography

[1] = 1-octanol/water distribution coefficient by high-performance liquid chromatography (JIS Z7260-117); type: physicochemical; details: HPLC
Procedure: For N-methyl-N-t-butylbenzothiazole-2-sulfenamide (BMBS) synthesized in Example 1, N-ethyl-N-t-butylbenzothiazole-2-sulfenamide (BEBS) synthesized in Example 2, N-n-propyl-N-t-butylbenzothiazole-2-sulfenamide (BPBS) synthesized in Example 3, N-n-butyl-N-t-butylbenzothiazole-2-sulfenamide (BBBS) synthesized in Example 4, and N,N-dicyclohexylbenzothiazole-2-sulfenamide (DCBS) which is a conventional compound, the 1-octanol/water distribution coefficient was measured by high-performance liquid chromatography according to JIS Z7260-117.

fish and shellfish = details: Official Bulletin of Economy, Trade and Industry, Dec. 22, 2005; cited from earlier work
microorganisms = details: safety checks of existing chemical substances; cited from earlier work
[2] = stated in TRGS552 (non-patent document 3); cited from earlier work
[3] = first concentration area 1 μg/L, after 14 days
[4] = first concentration area 1 μg/L, after 22 days
[5] = second concentration area 0.1 μg/L, after 14 days
[6] = second concentration area 0.1 μg/L, after 22 days

melting point: 55 to 56 °C
Structure (SMILES): CCCCN(Sc1nc2ccccc2s1)C(C)(C)C [BBBS, N-n-butyl-N-t-butylbenzothiazole-2-sulfenamide]

Structure (SMILES): CCN(Sc1nc2ccccc2s1)C(C)(C)C [BEBS, N-ethyl-N-t-butylbenzothiazole-2-sulfenamide]
Concentration ratio (times), average (carp; [3]): 180 times
Concentration ratio (times) (carp; [3]): 120 times and 240 times
Concentration ratio (times), average (carp; [4]): 170 times
Concentration ratio (times) (carp; [4]): 180 times and 170 times
Concentration ratio (times), average (carp; [5]): 180 times
Concentration ratio (times) (carp; [5]): 180 times and 190 times
Concentration ratio (times), average (carp; [6]): 160 times
Concentration ratio (times) (carp; [6]): 180 times and 130 times
bioaccumulation or bioconcentration (carp; preliminary test, in 22 days): 180 times

Structure (SMILES): CN(Sc1nc2ccccc2s1)C(C)(C)C [BMBS, N-methyl-N-t-butyl benzothiazole-2-sulfenamide]
logPow [1]: 4.5

melting point: 55 to 56 °C
Structure (SMILES): CCCN(Sc1nc2ccccc2s1)C(C)(C)C [BPBS, N-n-propyl-N-t-butylbenzothiazole-2-sulfenamide]

Structure (SMILES): c1ccc2sc(SN(C3CCCCC3)C3CCCCC3)nc2c1 [DCBS, N,N-dicyclohexylbenzothiazole-2-sulfenamide]
chromatographic logP ([1]; read-out: logPow): 7.4
concentration ratio (BCFSS) (fish and shellfish): 6000 times
degradability (microorganisms): hardly degradable

Structure (SMILES): CCN(N=O)C(C)(C)C [N-nitroso-N-ethyl-t-butylamine]
carcinogenicity [2]: not carcinogenic

Structure (SMILES): CN(N=O)C(C)(C)C [N-nitroso-N-methyl-t-butylamine]
carcinogenicity [2]: not carcinogenic

Structure (SMILES): CCCCN(N=O)C(C)(C)C [N-nitroso-N-n-butyl-t-butylamine]
carcinogenicity [2]: not carcinogenic

Structure (SMILES): O=NN(C1CCCCC1)C1CCCCC1 [N-nitrosodicyclohexylamine]
carcinogenicity [2]: not carcinogenic
